From patent US20190224278A1, “PRODUCING METHOD OF ANTIMICROBIAL PEPTIDE WITH ENHANCED ADHESION AND USES THEREOF” (Intelligent Synthetic Biology Center, priority 2018, published 2019)
Values after ≈ are worked out from the molar mass of the structure shown. Non-standard residues stand in square brackets, D forms with d. Residues, ends and D or L forms follow the SMILES beside them. No end group written: not given here. Dopa = N[C@@H](Cc1ccc(O)c(O)c1)C(=O)O

Legend:
E. coli [1] = type: cell-based, Escherichia coli; conditions: 18 h
Experimental: In order to confirm the antimicrobial activity of the adhesive antimicrobial peptides prepared in Experimental Example 1-1, the minimal inhibitory concentration (MIC) which inhibits the growth of E. coli was identified by using a method disclosed in Nature Protocols. 2008; 3(2):163-175. Briefly, a culture medium in which a single colony had been grown for 16 hours was subcultured and grown until OD600 reached 0.4 to 0.6, which corresponds to logarithmic growth. Thereafter, the number of cells was calculated according to the OD values, and the number of cells was set at 10^6 cell/mL. When a Mueller-Hinton Broth (MHB) was loaded to a polypropylene 96-well plate, 90 μL was added to the first row of the plate and 100 μL was added to the control wells, and 50 μL was added to the remaining wells. Thereafter, the peptide solution was prepared at a concentration of […], and 10 μL thereof was added to each well of the first row. The peptide solution was mixed with the medium using a multi-pipette, and then 50 μL was transferred to the second row (B). At this time, the peptide was diluted to half concentration, and the peptide was transferred up to the seventh row by the same method so that the peptide (64 μM to 1 μM) was dissolved in the medium. 10^6 cell/mL of Escherichia coli, which had been prepared previously, was added thereto, and then the plate was cultured for 18 hours. Thus, the final concentration range of the peptide used in the experiment became 32 μM to 0.5 μM. After culturing for 18 hours, the OD values were measured using a microplate reader (Tecan i-control 200 pro), and the MIC values were identified.

E. coli [2] = assay: Antimicrobial activity of the coated surface (modified ISO 22196 / colony counting assay); type: cell-based, Escherichia coli; conditions: coated on polystyrene at 25, 50 and 100 μM, E. coli cultured 24 hours
Experimental: In order to confirm the antimicrobial activity in the state where the antimicrobial peptides are coated, the experiment was carried out by an ISO 22196 method in which some steps were changed. Based on the results of Experimental Example 2-1 above, the experiment on the antimicrobial activity was carried out by only using the NKCs to which 3, 5, and 7 DOPA moieties were conjugated (i.e., NKC-L-O3, NKC-L-O5, NKC-L-O7, respectively). Each of NKC-L-O3, NKC-L-O5, and NKC-L-O7 was coated on a polystyrene surface at different concentrations of 25 μM, 50 μM, and 100 μM, and then E. coli in logarithmic phase (10^6 cell/mL) was cultured on the coated surface for 24 hours. After the culture, the culture medium was diluted to a certain concentration and smeared on a plate, and the CFU values were confirmed after 16 hours. The E. coli death level, calculated by comparing the above CFU values with CFU values of the uncoated surface, is represented using the following equation.
Antimicrobial Activity=(1−CFU of Surface of Sample/CFU of Control)×100
In order to measure the antimicrobial activity of NKC-L-O5 (100 μM) according to coating time, a colony counting assay was carried out. […] The plate was cultured at 37° C. for 16 hours, and then the colonies were counted.

| Molecule | MIC (E. coli [1]) | antimicrobial activity in coated state, dependence (E. coli [2]) |
| --- | --- | --- |
| CC[C@H](C)[C@H](NC(=O)CNC(=O)[C@H](CCCCN)NC(=O)[C@H](CCCCN)NC(=O)[C@H](CCC(N)=O)NC(=O)[C@H](CC(C)C)NC(=O)[C@H](CCCCN)NC(=O)[C@H](CC(C)C)NC(=O)[C@H](CC(C)C)NC(=O)[C@H](CCCCN)NC(=O)[C@H](CCCCN)NC(=O)[C@H](CC(C)C)NC(=O)[C@H](CC(C)C)NC(=O)[C@H](CCCCN)NC(=O)[C@H](CCSC)NC(=O)[C@H](C)NC(=O)[C@H](CCCCN)NC(=O)[C@@H]1CCCN1C(=O)[C@H](C)N)C(=O)NCC(=O)NCC(=O)NCC(=O)NCC(=O)N[C@@H](CO)C(=O)NCC(=O)NCC(=O)NCC(=O)NCC(=O)N[C@@H](CO)C(=O)N[C@@H](Cc1ccc(O)c(O)c1)C(=O)O [NKC-(G4S)2-DOPA1] (HELM PEPTIDE1{A.P.K.A.M.K.L.L.K.K.L.L.K.L.Q.K.K.G.I.G.G.G.G.S.G.G.G.G.S.[O=C(O)[C@H](Cc1ccc(O)c(O)c1)N[*:1]]}$$$$V2.0; N-terminus and C-terminus assumed) | 8 µM (≈ 23.7 µg/mL) | – |
| CC[C@H](C)[C@H](NC(=O)CNC(=O)[C@H](CCCCN)NC(=O)[C@H](CCCCN)NC(=O)[C@H](CCC(N)=O)NC(=O)[C@H](CC(C)C)NC(=O)[C@H](CCCCN)NC(=O)[C@H](CC(C)C)NC(=O)[C@H](CC(C)C)NC(=O)[C@H](CCCCN)NC(=O)[C@H](CCCCN)NC(=O)[C@H](CC(C)C)NC(=O)[C@H](CC(C)C)NC(=O)[C@H](CCCCN)NC(=O)[C@H](CCSC)NC(=O)[C@H](C)NC(=O)[C@H](CCCCN)NC(=O)[C@@H]1CCCN1C(=O)[C@H](C)N)C(=O)NCC(=O)NCC(=O)NCC(=O)NCC(=O)N[C@@H](CO)C(=O)NCC(=O)NCC(=O)NCC(=O)NCC(=O)N[C@@H](CO)C(=O)N[C@@H](Cc1ccc(O)c(O)c1)C(=O)N[C@@H](Cc1ccc(O)c(O)c1)C(=O)N[C@@H](Cc1ccc(O)c(O)c1)C(=O)O [NKC-(G4S)2-DOPA3] (H-APKAMKLLKKLLKLQKKGIGGGGSGGGGS[Dopa][Dopa][Dopa]-OH; N-terminus and C-terminus assumed) | 8 µM (≈ 26.5 µg/mL) | antimicrobial activity dependent on the number of DOPA moieties and the concentration of the NKC |
| CC[C@H](C)[C@H](NC(=O)CNC(=O)[C@H](CCCCN)NC(=O)[C@H](CCCCN)NC(=O)[C@H](CCC(N)=O)NC(=O)[C@H](CC(C)C)NC(=O)[C@H](CCCCN)NC(=O)[C@H](CC(C)C)NC(=O)[C@H](CC(C)C)NC(=O)[C@H](CCCCN)NC(=O)[C@H](CCCCN)NC(=O)[C@H](CC(C)C)NC(=O)[C@H](CC(C)C)NC(=O)[C@H](CCCCN)NC(=O)[C@H](CCSC)NC(=O)[C@H](C)NC(=O)[C@H](CCCCN)NC(=O)[C@@H]1CCCN1C(=O)[C@H](C)N)C(=O)NCC(=O)NCC(=O)NCC(=O)NCC(=O)N[C@@H](CO)C(=O)NCC(=O)NCC(=O)NCC(=O)NCC(=O)N[C@@H](CO)C(=O)N[C@@H](Cc1ccc(O)c(O)c1)C(=O)N[C@@H](Cc1ccc(O)c(O)c1)C(=O)N[C@@H](Cc1ccc(O)c(O)c1)C(=O)N[C@@H](Cc1ccc(O)c(O)c1)C(=O)N[C@@H](Cc1ccc(O)c(O)c1)C(=O)O [NKC-(G4S)2-DOPA5] (H-APKAMKLLKKLLKLQKKGIGGGGSGGGGS[Dopa][Dopa][Dopa][Dopa][Dopa]-OH) | 8 µM (≈ 29.4 µg/mL) | – |
| CC[C@H](C)[C@H](NC(=O)CNC(=O)[C@H](CCCCN)NC(=O)[C@H](CCCCN)NC(=O)[C@H](CCC(N)=O)NC(=O)[C@H](CC(C)C)NC(=O)[C@H](CCCCN)NC(=O)[C@H](CC(C)C)NC(=O)[C@H](CC(C)C)NC(=O)[C@H](CCCCN)NC(=O)[C@H](CCCCN)NC(=O)[C@H](CC(C)C)NC(=O)[C@H](CC(C)C)NC(=O)[C@H](CCCCN)NC(=O)[C@H](CCSC)NC(=O)[C@H](C)NC(=O)[C@H](CCCCN)NC(=O)[C@@H]1CCCN1C(=O)[C@H](C)N)C(=O)NCC(=O)NCC(=O)NCC(=O)NCC(=O)N[C@@H](CO)C(=O)NCC(=O)NCC(=O)NCC(=O)NCC(=O)N[C@@H](CO)C(=O)N[C@@H](Cc1ccc(O)c(O)c1)C(=O)N[C@@H](Cc1ccc(O)c(O)c1)C(=O)N[C@@H](Cc1ccc(O)c(O)c1)C(=O)N[C@@H](Cc1ccc(O)c(O)c1)C(=O)N[C@@H](Cc1ccc(O)c(O)c1)C(=O)N[C@@H](Cc1ccc(O)c(O)c1)C(=O)N[C@@H](Cc1ccc(O)c(O)c1)C(=O)O [NKC-(G4S)2-DOPA7] (H-APKAMKLLKKLLKLQKKGIGGGGSGGGGS[Dopa][Dopa][Dopa][Dopa][Dopa][Dopa][Dopa]-OH; N-terminus and C-terminus assumed) | 16 µM (≈ 64.6 µg/mL) | – |
| APKAMKLLKKLLKLQKKGI [NKC] | 1 µM | – |
